What was measured:
FbiA [1] = target: T1, FbiA (Mycolicibacterium smegmatis, UniProt A0QTG2); assay: X-ray crystal structure, crystal soaking; type: binding; details: pH 8.5, 20% glycerol
T1 construct: expressed in M. smegmatis mc^2155 (homologous host); homodimer
T1 sequence (A0QTG2 1-327): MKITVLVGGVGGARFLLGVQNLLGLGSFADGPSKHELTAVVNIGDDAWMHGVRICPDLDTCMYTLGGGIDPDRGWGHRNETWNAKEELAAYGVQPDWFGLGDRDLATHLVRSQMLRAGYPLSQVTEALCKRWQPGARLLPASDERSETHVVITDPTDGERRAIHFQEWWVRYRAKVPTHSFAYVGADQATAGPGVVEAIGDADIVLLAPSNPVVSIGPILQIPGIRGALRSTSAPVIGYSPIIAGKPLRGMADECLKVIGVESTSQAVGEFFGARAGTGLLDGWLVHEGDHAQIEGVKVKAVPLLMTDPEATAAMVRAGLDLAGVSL

FbiA [2] = target: T1, FbiA; assay: X-ray crystal structure, crystal soaking; co-purification with LC-MS; type: binding; details: pH 8.5, 20% glycerol; no metal seen; active site of Mol. B; carbonyl part poorly resolved
[3] = target: the molecule itself; assay: SEC-MALS; Superdex S200 Increase 10/300 in 200 mM NaCl, 50 mM Tris pH 7.9; purified FbiA; MALS detection (Wyatt)

O=c1nc2n(C[C@H](O)[C@H](O)[C@H](O)CO)c3cc(O)ccc3cc-2c(=O)[nH]1 [Fo]
X-ray crystal structure, crystal soaking (FbiA [1]; Fo alone (no metal seen) and with GDP and Ca2+, active site of Mol. B): FbiA plus Fo, 6UW1; FbiA plus GDP, 6UW3; FbiA plus GDP plus Fo, 6UW5

Nc1nc2c(ncn2[C@@H]2O[C@H](COP(=O)(O)OP(=O)(O)O)[C@@H](O)[C@H]2O)c(=O)[nH]1 [GDP]
X-ray crystal structure, crystal soaking (FbiA [1]; GDP alone and with Fo, active-site Ca2+ in Mol. B, in place of unstable EPPG): FbiA plus GDP, 6UW3; FbiA plus GDP plus Fo, 6UW5

C=C(OP(=O)(O)OC[C@@H](O)[C@@H](O)[C@@H](O)Cn1c2nc(=O)[nH]c(=O)c-2cc2ccc(O)cc21)C(=O)O [DH-F420-0]
X-ray crystal structure, crystal soaking; co-purification with LC-MS (FbiA [2]): FbiA plus DH-F420-0, 6UW7

B1: FbiA from M. smegmatis (enzyme)
chain: T1 sequence (A0QTG2 1-327)
notes: FbiA (phosphotransferase that makes dehydro-F420-0; homologous to CofD) from Mycobacterium smegmatis, gene MSMEG_1830; Copurifies with its product DH-F420-0 and some mature F420 (small molecules); also called MSMEG_1830; Mol. A; source: M. smegmatis mc2155, pMyNT vector, acetamide-induced, purified (Ni2+ agarose, SEC, TEV cleavage); not shown: His6, N-terminal, cleaved
stoichiometry N [3]: 2

— publication PMC7253369, “Cellular and Structural Basis of Synthesis of the Unique Intermediate Dehydro-F420-0 in Mycobacteria” (mSystems, 2020)
